The text below walks through data of patent US20200009173A1, “TRIAZOLE-CONTAINING MACROLIDES AND OPHTHALMIC USES THEREFOR” (Tetard, Inc., priority 2017, published 2020).

≈ marks a conversion by molar mass, not a printed value. Where two headings read alike, the source gives them in different places.

One assay has as its system P. Acnes. Description: MICs of solithromycin and comparator drugs against P. acnes. Format: cell-based. From the text: EXAMPLE. The formulations described herein show overall higher potency against ocular pathogens than commercial standards. MICs (μg/ml) of Solithromycin and Comparator Drugs against P. Acnes (51 Species)
The next assay deals with S. epidermidis. Description: MICs of solithromycin and comparator drugs, S. epidermidis (30 species). Format: cell-based. The text has this:
EXAMPLE. The formulations described herein show overall higher potency against ocular pathogens than commercial standards.
MICs (μg/ml) of Solithromycin and Comparator Drugs against Bacterial Species

The next assay concerns Mycoplasma pneumoniae. Description: MIC, Mycoplasma pneumoniae (38 strains). Format: cell-based.
Another assay deals with MMP9. Description: MMP9 activity in PMA-stimulated U937 cells (gelatin zymography). Format: cell-based, human. As to conditions: Homo sapiens, U-937. The protocol:
EXAMPLE. […] Cells. The human monocytic cell line U937 was obtained from the American Type Culture Collection (ATCC, Rockville, Md.). PBMCs from COPD patients were obtained from Brompton hospital and separated by AccuSPIN (Sigma-Aldrich). […] U937 cells were differentiated into adherent macrophage-like morphology by exposure to PMA (50 ng/ml) for 48 h in complete growth medium. Cell viability was assessed microscopically by trypan blue staining. Cell toxicity was determined by MTT assay as needed. This study was approved by the ethics committee of the Royal Brompton Hospitals, and all subjects gave written informed consent. Zymography. MMP9 enzyme activity was measured by gelatin zymography. […] After electrophoresis, gels were incubated and rinsed with Novex® zymogram renaturing buffer (Invitrogen) for 30 min at room temperature. The gels were then rinsed in Novex® zymogram developing buffer (Invitrogen) for 30 min at room temperature prior to overnight incubation in the developing buffer at 37° C. After incubation, the gels were stained using a Colloidal Blue Staining Kit (Invitrogen) to visualize the zymogen bands. Statistical analysis. The results were expressed as the mean±SEM. Comparisons of data in two groups were performed using the Student's t test or the Wilcoxon signed rank test. Multiple comparisons were made by one-way ANOVA with post hoc test (Dunnett's) as appropriate. The difference was considered significant at p<0.05.

The test system of the next assay is Corynebacterium spp. Description: MIC, Corynebacterium spp. Format: cell-based. As to conditions: N = 10.
[1] abbreviates: Cutibacterium acnes, 51 species.

`CC[C@H]1OC(=O)[C@@](C)(F)C(=O)[C@H](C)[C@@H](O[C@@H]2O[C@H](C)C[C@H](N(C)C)[C@H]2O)[C@](C)(OC)C[C@@H](C)C(=O)[C@H](C)[C@H]2N(CCCCn3cc(-c4cccc(N)c4)nn3)C(=O)O[C@]12C` [CEM-101, solithromycin]: the “MIC Range” value is at most 2 to 250 ng/mL in the assay with P. Acnes, at most 6.3e-05 to 500 ng/mL against Mycoplasma pneumoniae (N = 38) and ≤0.008-16 ^ μg/mL in the assay on Corynebacterium spp.. For the same molecule, the MIC50 (commonly the lowest concentration that inhibits either 50% of growth or 50% of the strains tested, depending on the study) in the assay with P. Acnes (setting [1]) came to 15 ng/mL (≈ 17.8 nM); against S. epidermidis (Staphylococcus epidermidis) it was 15 ng/mL (≈ 17.8 nM); against Mycoplasma pneumoniae (Mycoplasma, N = 38), 0.032 ng/mL (≈ 0.0379 nM); with Corynebacterium spp. (Corynebacterium), 15 ng/mL (≈ 17.8 nM). In addition, the MIC90 – broadly, the lowest concentration that inhibits either 90% of growth or 90% of the strains tested, depending on the study – with P. Acnes (setting [1]) came to 60 ng/mL (≈ 71 nM); against S. epidermidis (Staphylococcus epidermidis) it was 32000 ng/mL (≈ 37900 nM); in the assay on Mycoplasma pneumoniae (Mycoplasma, 38 strains, read-out: MIC90) it was 0.125 ng/mL (≈ 0.148 nM); against Mycoplasma pneumoniae (N = 38), 0.125 ng/mL (≈ 0.148 nM); against Corynebacterium spp. (Corynebacterium) it was 500 ng/mL (≈ 592 nM). In the assay with S. epidermidis, the “I (intermediate susceptibility)” value is listed as 3%. Further, the “NS (not susceptible)” value in the assay with S. epidermidis is given as 17%. The “S (susceptible)” value in the assay with S. epidermidis was found to be 80%. Further, half-maximal inhibition in the assay with MMP9 (IC50) was put at 14.9 ± 3.1 µM.
